Test results from US20020127544A1, “Modulators of US 28” (priority 2000, published 2002).
Counter-ions that a name gives are not always drawn. Like-named read-outs stand apart in the source and are kept apart here.

B1: Fractalkine: the CX3C chemokine, ligand of US28 (protein, UniProt P78423 25-397, looked up)
Fractalkine: QHHGVTKCNITCSKMTSKIPVALLIHYQQNQASCGKRAIILETRQHRLFCADPKEQWVKDAMQHLDRQAAALTRNGGTFEKQIGEVKPRTTPAAGGMDESVVLEPEATGESSSLEPTPSSQEAQRALGTSPELPTGVTGSSGTRLPPTPKAQDGGPVGTELFRVPPVSTAATWQSSAPHQPGPSLWAEAKTSEAPSTQDPSTQASTASSPAPEENAPSEGQRVWGQGQSPRPENSLEREEMGPVPAHTDAFQDWGPGSMAHVSVVPVSSEGTPSREPVASGSWTPKAEEPIHATMDPQRLGVLITPVPDAQAATRRQAVGLLAFLGLLFCLGVAMFTYQSLQGCPRKMAGEMAEGLRYIPRSCGSNSYVLVPV

Columns and labels:
US28 [1] = target: T1, US28 (Human cytomegalovirus, UniProt P69332); test: 125I-fractalkine radioligand binding to US28 on US28-NSO cells; set-up: host or cells: mouse NSO cells (US28-NSO); species or system Cytomegalovirus (CMV)
Experimental: The US28 expressing cells used in most assays consist of a mouse cell line (NSO cells from ATCC) stably expressing transfected US28 cDNA under the control of a CMV promoter (from R & D Systems). These cells were cultured in IMDM-5% FBS, and harvested when the concentration was between 0.5-1.0×10^6 cells/mL. Some assays were performed with adherent human 293 cells (US28-293 cells) or membranes. The cells were centrifuged and resuspended in assay buffer (20 mM HEPES, 140 mM NaCl, 1 mM CaCl2, 5 mM MgCl2, and with 0.2% bovine serum albumin) to a concentration of 5.6×10^6 cells/mL. Using the Multi-Probe automated system, set up with 8 assay plates at a time, first 0.09 mL of cells was added to the assay plates containing the compounds. The final concentration of the compounds was 5 μg/mL each. Then 0.09 mL of ^1251I-fractalkine diluted in assay buffer (final concentration ˜2-10fM, with ˜30,000 cpm per well) was added, the plates sealed and incubated for approximately 3 hours at 4 degrees C on a shaker platform. […] Scintillation fluid (35 μL) was added to all wells, the plates were sealed and counted in a Top Count scintillation counter. […]
Methiothepin mesylate (from the RBI division of Sigma Chemical Co., St. Louis, Mo., USA, Catalog No. M-149) and octoclothepin maleate (from RBI, Catalog No. O-111) were evaluated in the assays described in Examples 1 and 2. […]

US28 [2] = target: T1, US28; test: cytoplasmic calcium mobilization in US28-293 cells; format: cell-based, Cytomegalovirus (CMV); set-up: expressed in transfected cells; host or cells: human 293 cells (US28-293); settings: INDO-1 dye, mimicking the action of fractalkine in binding and signaling (FIG. 2)
Experimental: For each test, 1×10^6 cells were incubated at 37° C. in the cuvette of a PTI spectrometer, and the ratio of 410/490 nm emission plotted over time (typically 2-3 minutes), with compounds added at 5 seconds, followed by fractalkine at 60 seconds. […] Compounds which inhibited fractalkine binding were tested in this assay for the effects on Ca2+ in this system.
Methiothepin mesylate (from the RBI division of Sigma Chemical Co., St. Louis, Mo., USA, Catalog No. M-149) and octoclothepin maleate (from RBI, Catalog No. O-111) were evaluated in the assays described in Examples 1 and 2. The IC50 values were 0.3 μM for methiothepin mesylate and 0.7 μM for octoclothepin maleate.

US28 [3] = target: T1, US28; set-up: host or cells: mouse NSO cells (US28-NSO); settings: CX3C chemokine binding to US28; read-out: KI, binding affinity to US28; cited from earlier work

T1 sequence (P69332 whole entry): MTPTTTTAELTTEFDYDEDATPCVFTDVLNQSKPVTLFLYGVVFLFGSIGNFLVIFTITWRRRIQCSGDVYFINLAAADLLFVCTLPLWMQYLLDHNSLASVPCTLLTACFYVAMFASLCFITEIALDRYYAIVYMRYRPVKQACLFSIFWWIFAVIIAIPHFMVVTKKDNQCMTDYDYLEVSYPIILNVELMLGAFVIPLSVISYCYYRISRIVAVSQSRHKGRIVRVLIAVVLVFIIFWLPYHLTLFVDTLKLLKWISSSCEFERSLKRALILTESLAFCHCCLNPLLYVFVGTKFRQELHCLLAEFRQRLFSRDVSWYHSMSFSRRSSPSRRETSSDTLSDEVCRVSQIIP

Row | Molecule | IC50 (US28 [1]; dose response against fractalkine on US28-NSO cells (FIG. 1), read-out: IC50, inhibition of fractalkine binding to US28) | mode of action in calcium mobilization (US28 [2]) | IC50 (US28 [1]) | Ki (US28 [3])
1 | CN1CCN(C2Cc3ccccc3Sc3ccc(Cl)cc32)CC1.O=C(O)/C=C\C(=O)O (centres unmarked) [octoclothepin maleate, octoclothepin] | 700 nM | competitive agonists | – | –
2 | CSc1ccc2c(c1)C(N1CCN(C)CC1)Cc1ccccc1S2 (centres unmarked) [methiothepin mesylate, methiothepin] | – | competitive agonists | 300 nM | –
3 | B1 | – | – | – | ~0.05 nM
